Measurements taken from patent EP4725941A1, “ARYLAMIDE DERIVATIVE HAVING ANTITUMOR ACTIVITY” (priority 2020, dated 2021).

Legend:
Calu-6 = experiment: Cell proliferation-inhibiting activity (ATP in viable cells, CellTiter-Glo), Calu-6; type: cell-based, human; settings: Calu-6, 96 h; human lung cancer cells, 4 days; read-out: Calu-6 IC50
NCI-H2122 = experiment: Cell proliferation-inhibiting activity (ATP in viable cells, CellTiter-Glo), NCI-H2122; type: cell-based, human; settings: NCI-H2122, 96 h; human lung cancer cells, 4 days; read-out: NCI-H2122 IC50
MEK1 = target: T1, MEK1 (Homo sapiens, UniProt Q02750); experiment: MEK1-inhibiting activity, fluorescent polarization method (CRAF/MEK1/ERK2 cascade, IMAP); type: biochemical; settings: Table 3; read-out: MEK1 IC50
T1 construct: purchased Thermo Fisher Scientific Inc. (MEK1, CRAF); Carna Biosciences, Inc. (ERK2)
Procedure: The MEK1-inhibiting activity of the compounds listed in Table 3 below were evaluated by the fluorescent polarization method as described below.

[1] = Human liver microsome stability; type: in vitro ADME; settings: human liver microsomes, pH 7.4
A549 = experiment: Cell proliferation-inhibiting activity (ATP in viable cells, CellTiter-Glo), A549; type: cell-based, human; settings: A549, 96 h; human lung cancer cells, 4 days; read-out: A549 IC50
BRAF = target: T2, BRAF (Homo sapiens, UniProt P15056); experiment: BRAF-inhibiting activity, time-resolved fluorescence-fluorescence resonance energy transfer assay; type: biochemical; settings: read-out: BRAF IC50; Table 3
T2 construct: purchased Eurofins Genomics KK; (BRAF); Thermo Fisher Scientific Inc. (MEK1)
Procedure: The BRAF-inhibiting activity of the compounds listed in Table 3 below was evaluated by the time-resolved fluorescence-fluorescence resonance energy transfer assay as described below.

T1 sequence (Q02750 whole entry): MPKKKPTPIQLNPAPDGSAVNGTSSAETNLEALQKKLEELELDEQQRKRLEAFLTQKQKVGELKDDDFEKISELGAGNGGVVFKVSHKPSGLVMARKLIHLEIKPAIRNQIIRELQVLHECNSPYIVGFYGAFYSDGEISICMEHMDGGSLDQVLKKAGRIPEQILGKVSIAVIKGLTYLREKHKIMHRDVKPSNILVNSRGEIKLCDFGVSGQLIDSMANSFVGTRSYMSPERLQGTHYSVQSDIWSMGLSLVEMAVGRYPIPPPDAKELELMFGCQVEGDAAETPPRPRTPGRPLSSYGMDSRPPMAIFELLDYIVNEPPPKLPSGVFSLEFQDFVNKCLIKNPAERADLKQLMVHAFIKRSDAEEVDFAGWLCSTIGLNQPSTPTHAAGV
T2 sequence (P15056 417-766 limits assumed): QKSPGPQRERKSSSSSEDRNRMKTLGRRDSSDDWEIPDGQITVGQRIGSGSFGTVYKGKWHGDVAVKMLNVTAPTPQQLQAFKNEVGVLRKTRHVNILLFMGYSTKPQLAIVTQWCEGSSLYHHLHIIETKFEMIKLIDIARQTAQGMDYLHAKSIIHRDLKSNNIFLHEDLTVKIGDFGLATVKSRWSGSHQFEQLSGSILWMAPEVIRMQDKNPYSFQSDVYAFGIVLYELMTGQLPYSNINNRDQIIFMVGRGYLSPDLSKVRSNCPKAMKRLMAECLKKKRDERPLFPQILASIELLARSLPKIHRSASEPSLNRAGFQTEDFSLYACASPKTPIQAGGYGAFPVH

Structure (SMILES)	IC50 (Calu-6) [nM]	IC50 (NCI-H2122) [nM]	IC50 (MEK1) [nM]	microsomal CLint at 0.99 µM [1] [µL/min/mg]	IC50 (A549) [nM]	IC50 (BRAF) [nM]
CNS(=O)(=O)Nc1cccc(Cc2cc(C(=O)NC3CC3)c(Nc3ccc(I)cc3F)c(F)c2F)c1F [Compound D-6, N-Cyclopropyl-3,4-difluoro-2-(2-fluoro-4-iodoanilino)-5-[[2-fluoro-3-(methylsulfamoylamino)phenyl]methyl]benzamide]	24	2	55	34	8	8
CC(C)CS(=O)(=O)Nc1cccc(Cc2cc(C(N)=O)c(Nc3ccc(I)cc3F)c(F)c2F)c1F [Compound E-17, 3,4-Difluoro-2-(2-fluoro-4-iodoanilino)-5-[[2-fluoro-3-(2-methylpropylsulfonylamino)phenyl]methyl]benzamide]	110	7	199	24	31	6
CC(C)ONC(=O)c1cc(Cc2ccnc(NS(=O)(=O)NC3(C)CCC3)c2F)c(F)c(F)c1Nc1ccc(I)cc1F [Compound A-12, 3,4-Difluoro-2-(2-fluoro-4-iodoanilino)-5-[[3-fluoro-2-[(1-methylcyclobutyl)sulfamoylamino]pyridin-4-yl]methyl]-N-propan-2-yloxybenzamide]	18	5	13	121	6	6
COCC1(S(=O)(=O)Nc2cccc(Cc3cc(C(=O)NOC(C)(C)C)c(Nc4ccc(I)cc4F)c(F)c3F)c2F)CC1 [Compound E-4]	26	5	131	168	6	11
Cn1c(Nc2ccc(I)cc2F)c(C(N)=O)cc(Cc2cccc(NS(=O)(=O)NC3CC3)c2F)c1=O [Compound K-3, 5-[[3-(Cyclopropylsulfamoylamino)-2-fluorophenyl]methyl]-2-(2-fluor o-4-iodoanilino)-1-methyl-6-oxopyridine-3-carboxamide]	31	10	84	247	9	5
CNS(=O)(=O)Nc1cccc(Cc2cc(C(N)=O)c(Nc3ccc(I)cc3F)c(F)c2F)c1F [Compound E-7, 3,4-difluoro-2-(2-fluoro-4-iodoanilino)-5-[[2-fluoro-3-(methylsulfamoylamino)phenyl]methyl]benzamide]	8	0.4	334	5	1	6
CCNS(=O)(=O)Nc1cccc(Cc2cc(C(=O)NC3CC3)c(Nc3ccc(I)cc3F)n(C)c2=O)c1F [Compound K-13, N-Cyclopropyl-5-[[3-(ethylsulfamoylamino)-2-fluorophenyl]methyl]-2-(2-fluoro-4-iodoanilino)-1-methyl-6-oxopyridine-3-carboxamide]	53	13	115	321	18	9
Cn1c(Nc2ccc(I)cc2F)c(C(N)=O)cc(Cc2cccc(NS(=O)(=O)C3(C)CC3)c2F)c1=O [Compound K-6, 2-(2-Fluoro-4-iodoanilino)-5-[[2-fluoro-3-[(1-methylcyclopropyl)sulfonylamino]phenyl]methyl]-1-methyl-6-oxopyridine-3-carboxamide]	83	21	227	499	25	15
O=C(NC1CC1)c1cc(Cc2ccnc(NS(=O)(=O)NCCF)c2F)c(F)c(F)c1Nc1ccc(I)cc1F [Compound A-6, N-cyclopropyl-3,4-difluoro-5-[[3-fluoro-2-(2-fluoroethylsulfamoylamino)pyridin-4-yl]methyl]-2-(2-fluoro-4-iodoanilino)benzamide]	19	3	12	20	17	10
COCCNS(=O)(=O)Nc1nccc(Cc2cc(C(N)=O)c(Nc3ccc(I)cc3F)c(F)c2F)c1F [Compound A-33, 3,4-difluoro-2-(2-fluoro-4-iodoanilino)-5-[[3-fluoro-2-(2-methoxyethylsulfamoylamino)pyridin-4-yl]methyl]benzamide]	68	8	10	6	27	2
NC(=O)c1cc(Cc2cccc(NS(=O)(=O)CC3CC3)c2F)c(F)c(F)c1Nc1ccc(I)cc1F [Compound E-14, 5-[[3-(Cyclopropylmethylsulfonylamino)-2-fluorophenyl]methyl]-3,4-di fluoro-2-(2-fluoro-4-iodoanilino)benzamide]	71	7	343	22	13	17
COCCNS(=O)(=O)Nc1nccc(Cc2cc(C(=O)NOC(C)(C)C)c(Nc3ccc(I)cc3F)c(F)c2F)c1F [Compound A-9, 3,4-Difluoro-2-(2-fluoro-4-iodoanilino)-5-[[3-fluoro-2-(2-methoxyethylsulfamoylamino)pyridin-4-yl]methyl]-N-[(2-methylpropan-2-yl)oxy]be nzamide]	7	0.4	4	56	2	4
CNC(=O)c1cc(Cc2ccnc(NS(=O)(=O)NC)c2F)c(F)c(F)c1Nc1ccc(I)cc1F [Compound A-7, 3,4-Difluoro-2-(2-fluoro-4-iodoanilino)-5-[[3-fluoro-2-(methylsulfamoylamino)pyridin-4-yl]methyl]-N-methylbenzamide]	18	1	18	28	2	5
CNS(=O)(=O)Nc1nccc(Cc2cc(C(=O)NOC)c(Nc3ccc(I)cc3F)c(F)c2F)c1F [Compound A-13, 3,4-difluoro-2-(2-fluoro-4-iodoanilino)-5-[[3-fluoro-2-(methylsulfamoylamino)pyridin-4-yl]methyl]-N-methoxybenzamide]	3	0.3	1	31	1	3
CCNS(=O)(=O)Nc1cccc(Cc2cc(C(N)=O)c(Nc3ccc(I)cc3F)n(C)c2=O)c1F [Compound K-2, 5-[13-(Ethylsulfamoylamino)-2-fluorophenyl|methyl]-2-(2-fluoro-4-iodoanilino)-1-methyl-6-oxopyridine-3-carboxamide]	27	6	73	234	6	4
CNS(=O)(=O)Nc1nccc(Cc2cc(C(N)=O)c(Nc3ccc(I)cc3F)n3cncc23)c1F [Compound M-1, 5-(2-Fluoro-4-iodoanilino)-8-[[3-fluoro-2-(methylsulfamoylamino)pyridin-4-yl]methyl]imidazo[1,5-a]pyridine-6-carboxamide]	28	13	5	59	27	4
CCS(=O)(=O)Nc1cccc(Cc2cc(C(N)=O)c(Nc3ccc(I)cc3F)c(F)c2F)c1F [Compound D-4, 5-[[3-(ethylsulfonylamino)-2-fluorophenyl]methyl]-3,4-difluoro-2-(2-fluoro-4-iodoanilino)benzamide]	67	5	196	9	16	3
CONC(=O)c1cc(Cc2ccnc(NS(=O)(=O)NC3(C)CCC3)c2F)c(F)c(F)c1Nc1ccc(I)cc1F [Compound A-15, 3,4-difluoro-2-(2-fluoro-4-iodoanilino)-5-[[3-fluoro-2-[(1-methylcyclobutyl)sulfamoylamino]pyridin-4-yl]methyl]-N-methoxybenzamide]	5	1	8	57	2	4
CNS(=O)(=O)Nc1cccc(Oc2cc(F)cc(Nc3ccc(I)cc3F)c2C(N)=O)c1 [Ref-2, 4-Fluoro-2-(2-fluoro-4-iodoanilino)-6-[3-(methylsulfamoylamino)phenoxy]benzamide, reference compound]	35	3	364	12	8	12
CCS(=O)(=O)Nc1cccc(Cc2cc(C(=O)NOC)c(Nc3ccc(I)cc3Cl)c(F)c2F)c1F [Compound E-9, 2-(2-chloro-4-iodoanilino)-5-[[3-(ethylsulfonylamino)-2-fluorophenyl]methyl]-3,4-difluoro-N-methoxybenzamide]	57	6	95	13	7	11
NC(=O)c1cc(Cc2ccnc(NS(N)(=O)=O)c2F)c(F)c(F)c1Nc1ccc(I)cc1F [Compound B-10, 3,4-Difluoro-2-(2-fluoro-4-iodoanilino)-5-[[3-fluoro-2-(sulfamoylamino)pyridin-4-yl]methyl]benzamide]	33	8	22	3	72	11
